Data set [1] deals with putative α3β4-containing receptor. The note with it: cited from earlier work.
The test system of data set [2] is nicotinic receptors mediating dopamine release from rat synaptosomal preparations. The settings on record: cited from earlier work.
Data set [3] addresses human muscle nicotinic receptors (Homo sapiens, UniProt P02708+P07510+Q07001). The note with it: cited from earlier work.
In data set [4] the test system is nicotinic receptors in preparations of rat thalamus. The note with it: cited from earlier work.
A further data set concerns development of myopia. The note with it: chick, tree shrew, monkey and human; cited from earlier work.
The next data set has as its system accommodation. The settings on record: nicotine intravitreal and subconjunctival; vecuronium bromide applied to corneas; cited from earlier work.
For data set [5], the system named is chick eye (intraocular muscles, refraction, ocular dimensions). The data set can be described thus: Acute drug effects after a single intravitreal injection (pupil, refractometry, ultrasonography). In kind it is in vivo, chicks. As for the experimental part:
Acute drug effects. To assess acute drug effects, other two-week old chicks (n=5/group) received a single unilateral intravitreal injection of one of the nicotinic antagonists at doses chosen based on drug effects on the growth of goggled eyes: 200 μg chlorisondamine, 50 μg and 1 μg mecamylamine, 5 μg methyllycaconitine or […] dihydro-β-erythroidine. Just before and at two hours and 24 hours after injection, both eyes were examined by refractometry and ultrasonography by the above methods.

The subject of data set [6] is retina, retinal pigment epithelium, choroid. As to the kind of experiment: Histopathological effects on goggled and never-goggled eyes. The class given is in vivo, chicks. The settings on record: one week. As for the experimental part:
Histopathological effects. To identify potential histopathologic effects in other groups of monocularly deprived or never-goggled one-week old chicks, chlorisondamine (200 or 100 μg every other day; n=5-6/group), mecamylamine (200 or 50 μg daily; n=5-8/group) or saline vehicle (n=3-9/group) was administered by intravitreal injection to the goggled eyes or to one of the open eyes of never-goggled chicks with vehicle to the contralateral eye, using the identical protocol as above. After one week of treatment, the above protocols provided refraction, ultrasound and caliper measurements. The eyes were then immersion fixed in 3% glutaraldehyde/0.5% paraformaldehyde in 0.1M phosphate buffer, pH 7.4. The posterior segments were either embedded in paraffin, cut at 5 μm thickness and stained with hematoxylin and eosin, or embedded in historesin, cut at 3 μm or 5 μm thickness and stained with 0.5% azure II/0.5% methylene blue in 1% borate.

Data set [7] relates to goggled eyes (form-deprivation myopia). As to the kind of experiment: Form-deprivation myopia in unilaterally goggled chicks, intravitreal drug for one week.
Another data set relates to form deprived eye. The data set can be described thus: Longer term effects of single-dose chlorisondamine on form deprivation myopia. The class given is in vivo, chicks. The note with it: for Refraction Difference: goggled minus contralateral eye. As for the experimental part:
Longer term effects of single-dose chlorisondamine. In a separate experiment, another group of goggled chicks received a single intravitreal dose of 200 μg of chlorisondamine to the form deprived eye and saline to the contralateral eye only at the time of goggle application. They were compared to a group of unilaterally goggled chicks receiving a single saline injection to both eyes only at the time of goggle application. Neither group received subsequent intraocular injections. These chicks were evaluated by refractometry and ultrasound 4 days later, using ketamine/xylazine anesthesia. At one week after goggle application and single drug injection, the same chicks were evaluated again with refractometry, ultrasonography and caliper measurements of enucleated eyes as described above.

A further data set concerns non-goggled eyes. The data set can be described thus: Eye growth and refraction of non-goggled (open) eyes, intravitreal drug for one week.
A further data set concerns chick eye refraction. The note with it: cited from earlier work.
Data set [8] relates to ocular elongation following spectacle-induced hyperopic defocus. The note with it: applied to chick corneas; cited from earlier work.
[9] abbreviates: 2 hours after 200 μg single intravitreal injection.
Where [10] appears, read: 24 hours after 200 μg single intravitreal injection.
Where [11] appears, read: 100 μg every other day, goggled or non-goggled eyes.
[12] abbreviates: difference goggled vs contralateral open eye, intravitreal, one week, ANOVA over all doses.
Where [13] appears, read: goggled chicks, P<0.05, dose groups that differ, listed as Chlorisondamine.
Setting [14] is: 1 Week after single 200 μg dose.
Where [15] appears, read: 4 Days after single 200 μg dose.
The mark [16] stands for this setting: never-goggled chicks, drug treated vs contralateral vehicle treated eye, ANOVA on ranks.
Where [17] appears, read: non-goggled chicks, treated eyes, P<0.05.

Several values for one entry are separate records, joined by “and”; a condition that tells them apart may be missing. Identical values can stand only once. Entries after “also recorded” stand apart in the source; their conditions may differ.

human muscle nicotinic receptors, sequence (P02708 21-457): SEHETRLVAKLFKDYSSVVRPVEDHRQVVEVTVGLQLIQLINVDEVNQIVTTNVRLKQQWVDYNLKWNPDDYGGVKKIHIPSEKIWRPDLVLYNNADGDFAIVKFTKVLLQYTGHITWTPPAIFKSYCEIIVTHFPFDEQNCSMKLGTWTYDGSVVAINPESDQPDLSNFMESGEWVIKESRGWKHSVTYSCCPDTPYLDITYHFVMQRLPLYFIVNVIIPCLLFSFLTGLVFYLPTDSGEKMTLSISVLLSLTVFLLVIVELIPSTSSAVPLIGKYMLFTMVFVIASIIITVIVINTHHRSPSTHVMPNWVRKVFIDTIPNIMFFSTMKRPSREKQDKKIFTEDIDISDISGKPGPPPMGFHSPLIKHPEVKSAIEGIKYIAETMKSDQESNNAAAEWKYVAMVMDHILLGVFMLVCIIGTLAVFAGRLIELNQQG
human muscle nicotinic receptors, sequence (Q07001 22-517): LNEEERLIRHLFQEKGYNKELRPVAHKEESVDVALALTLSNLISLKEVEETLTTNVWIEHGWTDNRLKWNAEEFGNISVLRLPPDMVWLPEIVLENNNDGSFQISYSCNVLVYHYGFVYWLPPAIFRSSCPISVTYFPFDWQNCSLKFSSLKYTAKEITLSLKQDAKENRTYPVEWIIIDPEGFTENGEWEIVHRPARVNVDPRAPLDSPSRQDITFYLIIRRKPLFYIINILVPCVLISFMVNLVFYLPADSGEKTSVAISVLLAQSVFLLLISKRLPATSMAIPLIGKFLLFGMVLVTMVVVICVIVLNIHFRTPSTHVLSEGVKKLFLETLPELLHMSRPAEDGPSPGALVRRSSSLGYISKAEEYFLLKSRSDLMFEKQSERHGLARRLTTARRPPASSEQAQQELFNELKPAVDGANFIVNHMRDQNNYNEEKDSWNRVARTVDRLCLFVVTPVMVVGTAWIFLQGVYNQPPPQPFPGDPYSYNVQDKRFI
human muscle nicotinic receptors, sequence (P11230 24-501 partner): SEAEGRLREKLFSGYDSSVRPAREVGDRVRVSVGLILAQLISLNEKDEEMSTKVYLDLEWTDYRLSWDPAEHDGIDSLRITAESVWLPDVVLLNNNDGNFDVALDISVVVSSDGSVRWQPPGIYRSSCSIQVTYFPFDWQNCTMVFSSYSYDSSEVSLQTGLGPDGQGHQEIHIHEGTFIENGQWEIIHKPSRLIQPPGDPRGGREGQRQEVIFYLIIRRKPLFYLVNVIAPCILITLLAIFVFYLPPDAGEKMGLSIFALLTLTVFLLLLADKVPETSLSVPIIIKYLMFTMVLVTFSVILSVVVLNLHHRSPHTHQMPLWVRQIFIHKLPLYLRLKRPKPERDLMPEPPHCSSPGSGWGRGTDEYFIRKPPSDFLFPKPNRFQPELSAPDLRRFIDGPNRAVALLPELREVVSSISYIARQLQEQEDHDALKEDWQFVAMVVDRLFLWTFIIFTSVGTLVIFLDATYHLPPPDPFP
human muscle nicotinic receptors, sequence (P07510 23-517): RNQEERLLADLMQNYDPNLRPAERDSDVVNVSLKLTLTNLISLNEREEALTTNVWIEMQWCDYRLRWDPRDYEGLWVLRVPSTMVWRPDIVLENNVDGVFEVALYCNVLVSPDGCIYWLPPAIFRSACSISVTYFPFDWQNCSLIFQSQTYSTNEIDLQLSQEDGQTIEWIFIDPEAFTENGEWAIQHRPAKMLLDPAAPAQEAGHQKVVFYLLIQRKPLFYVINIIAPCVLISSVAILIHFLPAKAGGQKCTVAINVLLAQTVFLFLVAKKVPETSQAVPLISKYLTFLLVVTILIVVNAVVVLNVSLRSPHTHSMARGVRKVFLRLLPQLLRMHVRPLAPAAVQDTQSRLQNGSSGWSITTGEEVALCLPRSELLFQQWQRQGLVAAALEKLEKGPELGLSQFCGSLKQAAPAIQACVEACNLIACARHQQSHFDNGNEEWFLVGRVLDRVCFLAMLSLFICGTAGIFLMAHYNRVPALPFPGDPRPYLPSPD

For the molecule `c1cncc(C2CC3CCN2CC3)c1` (racemic) [RJR-2429, (+/−)-2-(-3-pyridinyl)-1-azabicyclo [2.2.2]octane], the “action at putative α3β4-containing receptor” value in data set [1] is “selectively activates”. Also, the “action at nicotinic receptors mediating dopamine release” value in [2] is on record as “partial agonist”. Besides, the “action at human muscle nicotinic receptors” value in data set [3] is reported as “selectively activates”. Moreover, in [4], the “action at nicotinic receptors in preparations of rat thalamus” value is recorded as “inhibits”.
As to `CN1[C@@H]2CC[C@H]1C[C@@H](OC(=O)C(CO)c1ccccc1)C2` (stereo partly shown) [atropine], the development of myopia entry in the data set on development of myopia is given as “retards the development of myopia; also recorded: blocks myopia in the chick”. In the data set on accommodation, the “effect on accommodation in chicks” value is on record as “fails to paralyze accommodation”.
`C[N+](C)(C)CC[N+]1(C)Cc2c(Cl)c(Cl)c(Cl)c(Cl)c2C1` [chlorisondamine, chlorisondamine diiodide]: in data set [5] (2 and 24 hours after single intravitreal injection), the “acute effect on ultrasound measurements of ocular dimensions, in words” value was “transiently reducing axial and vitreous cavity lengths at the 2 hour but not at the 24 hour reading”. Moreover, in [5] (setting [9]), the “reduction in axial length by ultrasonography” value was found to be 0.16±0.04 mm, the “reduction in posterior chamber depth by ultrasonography” value turned out to be 0.20±0.07 mm and the “reduction of lens thickness” value stood at 0.12±0.04 mm. Further, in data set [5] (setting [10]), the “axial length and posterior chamber depth at 24 hours” value was “returned to baseline”; the “reduction of lens thickness” value is 0.16±0.05 mm. In addition, in data set [5] (24 hours after single intravitreal injection (chlorisondamine 200 μg)), the “pupil diameter, change from baseline” value is on record as 0.7±0.2 mm. Besides, the “pupil diameter, change from baseline” value in data set [5] (two hours after single intravitreal injection of 200 μg) came out at 0.8±0.1 mm. In [6] (setting [11]), the “gross inspection of the eye cups” value is given as “either a normal fundus or only mild peripheral pigmentary changes”; the histology result was “Some eyes had normal histology, some showed a single large, smooth hyper-pigmented inclusion within a rare RPE cell as the sole detectable histologic change, and some had a small isolated peripheral patch of the marked RPE/choriocapillaris pathology”. Further, the “gross inspection of the eye cup” value in data set [6] (200 μg every other day, most goggled eyes (4/5) and all never-goggled eyes (n=5)) was “mild to marked mottling and depigmentation of the mid-peripheral fundus”. In data set [6] (200 μg every other day, regions corresponding to peripheral depigmented areas), the “histology of tissue sections” value is “marked disruption and clumping of cells of the retinal pigment epithelium (RPE)”. Besides, in data set [7] (setting [12]), the “axial length measured by digital calipers, goggled eyes, drug effect” value is recorded as “inhibited the excessive axial elongation developing beneath a goggle”; the “axial length measured by ultrasound, goggled eyes, drug effect” value is recorded as “inhibited the excessive axial elongation developing beneath a goggle”; the “equatorial diameter measured by calipers (equatorial expansion of vitreous cavity), goggled eyes, drug effect” value is given as “reduced the vitreous cavity expansion”; the “refraction of goggled eyes (myopic refractive error), drug effect” value is listed as “reduced the myopic refractive error; also recorded: influenced the myopic refraction occurring beneath a goggle”. Moreover, the “vitreous cavity length measured by ultrasound, goggled eyes, drug effect” value in data set [7] (setting [12]) is reported as “reduced the vitreous cavity expansion”. Besides, in data set [7] (goggled chicks, P<0.05, dose groups that differ), the “Ultrasound measurements vitreous cavity depth: statistically significant post hoc pairwise comparisons (Tukey test)” value was determined as 100 μg vs. 50 μg. In addition, in data set [7] (setting [13]), the “Ultrasound measurements axial length: statistically significant post hoc pairwise comparisons (Tukey test)” value was “significant drug effects compared to the vehicle-treated controls”, the “Ultrasound measurements vitreous cavity depth: statistically significant post hoc pairwise comparisons (Tukey test)” value was “significant drug effects compared to the vehicle-treated controls” and the “refraction: statistically significant post hoc pairwise comparisons (Tukey test)” value was “significant drug effects compared to the vehicle-treated controls”. The “overall effect on excessive ocular growth / experimental myopia of goggled eyes” value in [7] (intravitreal, one week) is “reduced the excessive ocular growth occurring beneath a goggle”. The “anterior chamber depth of goggled eyes, drug effect” value in data set [7] (intravitreal, one week, ANOVA) is recorded as “no statistically significant effect”. For the same molecule, in the data set with form deprived eye (1 Week), the “axial length difference (ultrasound), ratio-chlorisondamine/vehicle” value amounted to 0.54 and the “vitreous cavity length difference, ratio-chlorisondamine/vehicle” value worked out at 0.71. For the same molecule, in the data set with form deprived eye (setting [14]), the “Caliper Measurements axial length difference” value is 0.22 ± 0.10 mm**, the “Caliper Measurements equatorial diameter difference” value stood at 0.17 ± 0.07 mm****, the “Ultrasound Measurements axial length difference” value amounted to 0.33 ± 0.11 mm** and the “Ultrasound Measurements vitreous cavity length difference” value was determined as 0.49 ± 0.08 mm*. In addition, the “Refraction Difference” value with form deprived eye (setting [14]) is recorded as −8.58 ± 2.06 diopters. For the same molecule, in the data set with form deprived eye (4 Days), the “axial length difference (ultrasound), ratio-chlorisondamine/vehicle” value amounted to 0.47 and the “vitreous cavity length difference, ratio-chlorisondamine/vehicle” value is recorded as 0.70. In the data set on form deprived eye (setting [15]), the “Ultrasound Measurements axial length difference” value turned out to be 0.20 ± 0.07 mm***, the “Ultrasound Measurements vitreous cavity length difference” value is given as 0.28 ± 0.06 mm and the “Refraction Difference” value is listed as −2.98 ± 1.88 diopters**. Also, the “response for form deprivation after a single dose, in words” value with form deprived eye (single dose of 200 μg at the time of goggle application, over the next week) is reported as “significantly blunted the response for form deprivation over the next week”. For the same molecule, the “equatorial expansion of the vitreous cavity, non-goggled drug-treated eyes” value with non-goggled eyes (never-goggled chicks, ANOVA on ranks) was “did not reach statistical significance”. For the same molecule, the “increase in lens thickness” value in the data set with non-goggled eyes (never-goggled chicks, both eyes of the 10 μg group compared to 50, 100 or 200 μg doses and saline chicks) is given as “about 0.1 mm”. Also, in the data set on non-goggled eyes (setting [16]), the “axial expansion of the vitreous cavity, non-goggled drug-treated eyes” value is reported as “growth reduction was confined to the vitreous cavity; also recorded: inhibited the axial expansion of the vitreous cavity”; the “axial length by calipers, non-goggled drug-treated eyes” value is on record as “reduced the axial growth of drug-treated eyes; also recorded: reduced axial length”; the “axial length by ultrasound, non-goggled drug-treated eyes” value is “reduced the axial growth of drug-treated eyes; also recorded: reduced axial length”; the “refraction of non-goggled drug-treated eyes” value is “hyperopic shift in refraction; also recorded: shifted overall refraction towards hyperopia”. In the data set with non-goggled eyes (setting [17]), the “Ultrasound measurements vitreous cavity depth: statistically significant post hoc pairwise comparisons (Tukey test)” value is 100 μg and 50 μg and 100 μg vs. 50 μg; the “refraction: statistically significant post hoc pairwise comparisons (Tukey test)” value was 200 μg and 10 μg and 200 μg vs. 10 μg.
Regarding `CN1CCCC1c1cccnc1` (stereo not shown) [nicotine], in the data set on accommodation, the “effect on accommodation in chicks” value is on record as “induce accommodation”. Also, the “myopic refractive shift compared to non-treated eyes” value with chick eye refraction (daily subconjunctival injections, not seen for subconjunctival saline) is on record as 0.75 diopters. In the data set on chick eye refraction (twice daily intravitreal injections for two weeks, intravitreal saline had the same effect), the “myopic shift in refraction compared to contralateral non-injected eyes” value is given as roughly 2 diopter.
Consider `CC(=O)O[C@H]1C[C@@H]2CC[C@@H]3[C@H](CC[C@@]4(C)[C@H]3C[C@H]([N+]3(C)CCCCC3)[C@@H]4OC(C)=O)[C@@]2(C)C[C@@H]1N1CCCCC1` [vecuronium bromide], for which the “ocular elongation following spectacle-induced hyperopic defocus” value in data set [8] is reported as “failed to influence”. The “effect on accommodation in chicks” value in the data set on accommodation is on record as “paralyzed accommodation”.

The values are drawn from patent publication US20030096831A1, “Ocular growth and nicotinic antagonists” (priority 2000, published 2003).
